This note sets out measurements from patent publication US20260356824A1, “COMPOUNDS FOR TREATING FIBROTIC DISEASES” (Meta-Immue Inc., priority 2023, published 2026).

In general, inhibition refers to the drop in the measured response relative to a control, in per cent. For orientation: IC50 means the midpoint of a concentration-inhibition curve. A word on the amount remaining: it is the share of the starting amount still present when the sample was taken.

One data set addresses T1, BSEP (Homo sapiens, UniProt O95342).
T1 construct: ATP-dependent uptake of radiolabelled probe substrate
As to the kind of experiment: Bile Salt Export Pump (BSEP) Assay, Sf9 insect cell vesicles expressing BSEP. The format is in vitro ADME. The following applies: 10 μM test compound, probe substrate 1 μM [3H]-taurocholic acid, 15 min incubation. As to the method:
• 1. A stock solution was prepared with the test article (Sponsor compound) in DMSO. • 2. All final assay solutions of probe substrate, reference inhibitor or test article contain 0.5% (v/v) DMSO (vehicle control). • 3. Test article concentrations in transport study were specified in the Summary Table of Experimental Conditions of this protocol.
• 1. Bovine Serum Albumin (BSA) • 2. Dimethyl sulfoxide (DMSO) • 3. BSEP Assay Uptake Buffer (10 mM HEPES-Tris pH 7.4, 0.1 M KNO3, 12.5 mM Mg(NO3)2, 50 mM sucrose) • 4. BSEP Wash Buffer (10 mM Tris-HCl pH 7.4, 0.1 M KNO3, 50 mM sucrose) • 5. BSEP Blocking Buffer (BSEP Wash Buffer+0.5 mg/mL BSA) • 6. 25 mM Mg-ATP solution • 7. 25 mM AMP solution • 8. Corning Costar 96-well flat-bottom, untreated, white Assay Plate (Corning Cat. No. 3912) • 9. Millipore MultiscreenHTs Filtration Plate, glass fiber FB—1.0/0.65 μm (Cat. No. MSFBN6B10 or glass fiber FC—1.2/0.65 μm (Cat. No. MSFCN6B10) • 10. Millipore MultiscreenHTS Vacuum Manifold (Cat. No. MSVMHTS00) • 11. Probe substrates listed in Table 1 • 12. Reference inhibitors listed in Table 1 • 13. Test articles
• 1. Test system: • a. 96-well flat bottom plate containing a suspension of vesicles and a corresponding 96-well glass fiber filtration plate. • b. Transport experiments were conducted in the Assay Uptake Buffer. • c. Transport experiment was initiated with the addition of Mg-ATP or AMP to appropriate wells. • d. Each condition was run in triplicate wells. • 2. Prepared the 96-well flat-bottom assay plate. • a. Incubated the assay plate with the Blocking Buffer for 60 min at 37 °C with orbital shaking at approximately 90 rpm. (NOTE: This is done to prevent non-specific binding of vesicles to polystyrene assay plate). • b. After 60 min, completely removed the Blocking Buffer from the assay plate. • c. The Assay Uptake Buffer solutions were added to the assay plate wells as follows: • i. For probe substrate transport assays, the Assay Uptake Buffer contained vesicles and the probe substrate at the specified concentration. • ii. For the reference inhibition assay, the Assay Uptake Buffer contained vesicles, the reference inhibitor and the probe substrate at the specified concentration in Table 1. • iii. For the test article assays, Assay Uptake Buffer contained vesicles, the test article and the probe substrate at the specified concentration in Table 1. • 3. Incubate at 37 °C with orbital shaking at approximately 90 rpm for the time period specified in Table 1 of this protocol. • 4. Using the 25 mM Mg-ATP or AMP stocks, Mg-ATP or AMP was added to test wells of flat bottom assay plate to a final concentration of 5 mM. • 5. Incubated at 37 °C with orbital shaking at approximately 90 rpm for the incubation time specified in Table 1 of this protocol. • 6. Prepared the 96-well glass fiber filtration plate: • a. Incubated the filtration plate with the Blocking Buffer for 2 min at room temperature with under no vacuum. • b. Turned on vacuum and allowed Blocking Buffer to filter through plate. • c. With vacuum on, filter plate was washed with ice cold Wash Buffer. • 7. At the end of the specified incubation time indicated in […] of this protocol, vesicle transport was quenched by adding ice cold Wash Buffer to samples in 96-well assay plate. • 8. Mixed assay samples (now diluted in Wash Buffer) with pipette and transfered 175 μL into the 96-well glass fiber filtration plate to separate vesicles from buffer by applying vacuum. • 9. Washed filter plate wells with ice cold Wash Buffer. • 10. Allowed filter plate to dry under vacuum. • 11. Transfered filters to scintillation sample plate and added 700 μL of scintillation fluid to the above samples. • 12. Counted the above samples on a 1450 Microbeta (Perkin-Elmer).
• 1. The amount of substrate was quantified with radiometric detection on a 1450 Microbeta (Perkin-Elmer). • 2. For transport study samples run in triplicate, the mean and standard deviation of the replicates were reported. • 3. […]

The target of the next data set is T2, hLPAR1 (Homo sapiens, UniProt Q92633).
T2 construct: expressed in transfected cells
As to the kind of experiment: Ca2+ Flux Assay (B103 cells stably expressing hLPAR1). The format is cell-based. The conditions noted are these: LPA-induced calcium release, Fura-2 AM, compound 20 min at RT. In outline: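 Fura-2 AM (5 μM) loaded 40 min at RT in HBSS/20 mM HEPES/probenecid/0.3% fatty-acid-free BSA after 2 h serum starvation. Compounds preincubated 20 min at RT, then LPA […] added. Intracellular calcium mobilization read as fluorescence intensity.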
(In general: Calcium assays in cells follow changes in intracellular calcium, usually with a dye or a luminescent sensor.)

The subject of the next data set is A2058 cells. The data set is described as follows: Chemotaxis Assay (LPA-induced migration of A2058 cells). The conditions noted are these: Homo sapiens, 4 to 8 hours, crystal violet 590 nm. The format is cell-based. Put shortly:
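A2058 cells, starved 24 hr and treated with test compound or vehicle, were placed on a fibronectin-coated membrane ([…]) above […] in DMEM. After 4–8 h migration, migrated cells were crystal violet stained and read at 590 nm. Values are relative percentage of control.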

The nature of data set [1]: Liver microsomal stability, rat. The format is in vitro ADME. The following applies: rat liver microsomes; 30 min; percent of parent remaining; read-out: Liver Microsomal stability (%), % of remaining after 30 min, Rat. On the technique in general: Microsomes from liver hold many membrane-bound enzymes, among them those of drug oxidation.
A short description of data set [2]: Liver microsomal stability, human. The format is in vitro ADME. The conditions noted are these: human liver microsomes; 30 min; percent of parent remaining; read-out: Liver Microsomal stability (%), % of remaining after 30 min, Human.

T1 sequence (O95342 whole entry): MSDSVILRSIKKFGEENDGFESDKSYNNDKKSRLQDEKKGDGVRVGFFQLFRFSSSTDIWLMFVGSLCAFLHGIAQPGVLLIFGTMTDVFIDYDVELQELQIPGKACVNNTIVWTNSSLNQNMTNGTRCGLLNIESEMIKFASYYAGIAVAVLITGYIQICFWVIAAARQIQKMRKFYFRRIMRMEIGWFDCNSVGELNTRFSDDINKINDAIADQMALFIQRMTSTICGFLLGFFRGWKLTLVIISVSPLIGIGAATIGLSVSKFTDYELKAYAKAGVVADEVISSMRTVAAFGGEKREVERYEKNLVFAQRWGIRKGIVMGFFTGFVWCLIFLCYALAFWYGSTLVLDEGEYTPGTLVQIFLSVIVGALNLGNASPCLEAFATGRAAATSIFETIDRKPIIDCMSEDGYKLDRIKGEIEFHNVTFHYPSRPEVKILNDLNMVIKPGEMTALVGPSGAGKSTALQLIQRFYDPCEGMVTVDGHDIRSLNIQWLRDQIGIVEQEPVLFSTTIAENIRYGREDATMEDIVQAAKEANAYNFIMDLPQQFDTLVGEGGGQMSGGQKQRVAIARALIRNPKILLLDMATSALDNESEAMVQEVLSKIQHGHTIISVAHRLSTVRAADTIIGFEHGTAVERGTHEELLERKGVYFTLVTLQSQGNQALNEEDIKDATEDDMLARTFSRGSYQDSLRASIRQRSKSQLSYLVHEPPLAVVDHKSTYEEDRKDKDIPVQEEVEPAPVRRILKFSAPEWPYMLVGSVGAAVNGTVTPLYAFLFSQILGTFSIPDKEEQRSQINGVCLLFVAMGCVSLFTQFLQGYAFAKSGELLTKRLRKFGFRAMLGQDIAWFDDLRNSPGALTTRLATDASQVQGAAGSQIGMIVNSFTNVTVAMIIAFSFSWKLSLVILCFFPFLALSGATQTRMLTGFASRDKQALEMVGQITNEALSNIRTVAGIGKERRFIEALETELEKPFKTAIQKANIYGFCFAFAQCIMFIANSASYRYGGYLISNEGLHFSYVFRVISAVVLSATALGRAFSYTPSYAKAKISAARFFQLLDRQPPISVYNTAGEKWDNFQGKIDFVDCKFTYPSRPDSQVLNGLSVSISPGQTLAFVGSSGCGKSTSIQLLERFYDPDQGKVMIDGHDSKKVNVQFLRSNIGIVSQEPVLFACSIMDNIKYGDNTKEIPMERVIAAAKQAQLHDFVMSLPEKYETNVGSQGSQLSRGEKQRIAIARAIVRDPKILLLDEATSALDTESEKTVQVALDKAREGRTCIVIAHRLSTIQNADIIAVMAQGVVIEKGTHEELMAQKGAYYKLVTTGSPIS
T2 sequence (Q92633 whole entry): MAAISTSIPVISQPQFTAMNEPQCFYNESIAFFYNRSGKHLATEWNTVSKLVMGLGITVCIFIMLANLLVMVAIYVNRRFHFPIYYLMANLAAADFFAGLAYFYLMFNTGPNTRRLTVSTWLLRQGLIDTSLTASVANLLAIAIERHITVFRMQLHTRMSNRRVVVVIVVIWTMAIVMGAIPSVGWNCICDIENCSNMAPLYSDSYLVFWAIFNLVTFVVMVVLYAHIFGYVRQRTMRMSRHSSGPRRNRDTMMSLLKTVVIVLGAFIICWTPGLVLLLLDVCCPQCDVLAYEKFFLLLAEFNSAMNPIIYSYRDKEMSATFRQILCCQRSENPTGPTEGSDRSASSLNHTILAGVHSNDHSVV

As for `CCc1ccccc1[C@@H](C)OC(=O)Nc1c(C)noc1C1CCN(c2ccc(C3(C(=O)O)CC3)cc2)CC1` [Compound 38, (R)-1-(4-(4-(4-(((1-(2-ethylphenyl)ethoxy)carbonyl)amino)-3-methylisoxazol-5-yl)piperidin-1-yl)phenyl)cyclopropane-1-carboxylic acid], the inhibition at 0.25 h, 10 µM on BSEP is 50 to 75%. The figures for the IC50 at hLPAR1 and in the data set on A2058 cells were under 10 nM and under 100 nM, respectively. Further, the share remaining at 0.5 h in data set [1] is over 75%; in data set [2], 25 to 50%.

In the case of `Cc1nc(C2(C(=O)O)CC2)ccc1N1CCC(c2onc(C)c2NC(=O)O[C@H](C)c2ccccc2)CC1` [Compound 62], the inhibition at 0.25 h, 10 µM on BSEP fell in the range of 25 to 50%. The figures for the IC50 on hLPAR1 and in the data set with A2058 cells were 10 to 200 nM and 100 to 500 nM, respectively. For the same compound, the amount remaining at 0.5 h in data set [1] and in data set [2] was over 75% in each case.

Consider `Cc1noc(C2CCN(c3ccc(C4(c5cc(O)no5)CC4)cc3)CC2)c1NC(=O)O[C@H](C)c1ccccc1` [Compound 64], for which, on BSEP, the inhibition at 0.25 h, 10 µM lay in the range of 75 to 100%. Besides, the figures for the half-maximal inhibitory concentration (IC50) at hLPAR1 and in the data set with A2058 cells were under 10 nM and under 100 nM, respectively. The results for the fraction remaining at 0.5 h in data set [1] and in data set [2] were 25 to 50% and 50 to 75%, respectively.

In the case of `Cc1noc(C2CCN(c3ccc(C4(C(=O)NS(=O)(=O)C(C)(C)C(=O)O)CC4)cc3)CC2)c1NC(=O)O[C@H](C)c1ccccc1` [Compound 67, 2-methyl-2-[[1-[4-[4-[3-methyl-4-[[(1R)-1-phenylethoxy]carbonylamino]isoxazol-5-yl]-1-piperidyl]phenyl]cyclopropanecarbonyl]sulfamoyl]propanoic acid], at BSEP, the inhibition at 0.25 h, 10 µM was 25 to 50%. The IC50 was under 10 nM at hLPAR1 and under 100 nM in the data set on A2058 cells. Besides, the amount remaining at 0.5 h in data set [1] and in data set [2] was over 75% each time.

Consider `Cc1noc(C2CCN(c3ccc(C4(C(=O)NS(=O)(=O)CC(=O)O)CC4)cc3)CC2)c1NC(=O)O[C@H](C)c1ccccc1` [Compound 80], for which the inhibition at 0.25 h, 10 µM at BSEP lay within 25 to 50%. The IC50 on hLPAR1 is under 10 nM; in the data set with A2058 cells, under 100 nM. Besides, the share remaining at 0.5 h in data set [1] was 50 to 75%; in data set [2], over 75%.

As for `Cc1noc(C2CCN(c3ccc(C4(C(=O)NS(=O)(=O)CCC(=O)O)CC4)cc3)CC2)c1NC(=O)O[C@H](C)c1ccccc1` [Compound 83], the inhibition at 0.25 h, 10 µM on BSEP was at most 25%. Moreover, the half-maximal inhibitory concentration (IC50) on hLPAR1 was under 10 nM; with A2058 cells it was under 100 nM. For the same compound, the fraction remaining at 0.5 h in data set [1] and in data set [2] was over 75% in each case.

Regarding `Cc1noc(C2CCN(c3ccc(C4(C(=O)NS(=O)(=O)CCCC(=O)O)CC4)cc3)CC2)c1NC(=O)O[C@H](C)c1ccccc1` [Compound 84], the inhibition at 0.25 h, 10 µM on BSEP was at most 25%. In addition, the IC50 was under 10 nM on hLPAR1 and 100 to 500 nM with A2058 cells. In addition, the share remaining at 0.5 h in data set [1] was over 75%; in data set [2] it was 50 to 75%.

For the compound `Cc1noc(C2CCN(c3ccc(C4(C(=O)NS(=O)(=O)CCCO)CC4)cc3)CC2)c1NC(=O)O[C@H](C)c1ccccc1` [Compound 85], on BSEP, the inhibition at 0.25 h, 10 µM was at most 25%. Further, the IC50 at hLPAR1 was under 10 nM; in the data set with A2058 cells, under 100 nM. Also, the fraction remaining at 0.5 h in data set [1] is 50 to 75%; in data set [2], over 75%.

Regarding `CNS(=O)(=O)NC(=O)C1(c2ccc(N3CCC(c4onc(C)c4NC(=O)O[C@H](C)c4ccccc4)CC3)cc2)CC1` [Compound 86], the inhibition at 0.25 h, 10 µM on BSEP was in the range of 50 to 75%. The IC50 was under 10 nM at hLPAR1 and 100 to 500 nM with A2058 cells. Besides, the fraction remaining at 0.5 h in data set [1] and in data set [2] was over 75% each time.

Take `Cc1noc(C2CCN(c3ccc(C4(C(=O)O)CC4)cc3)CC2)c1NC(=O)O[C@H](C)c1ccccc1` [Compound 87, 1-(4-{4-[3-methyl-4-({[(1R)-1-phenylethoxy]carbonyl}amino)-1,2-oxazol-5-yl]piperidin-1-yl}phenyl)cyclopropane-1-carboxylic acid]: the inhibition at 0.25 h, 10 µM at BSEP lay in the range of 25 to 50%. The IC50 on hLPAR1 is under 10 nM; in the data set on A2058 cells, under 100 nM. Besides, the fraction remaining at 0.5 h in data set [1] and in data set [2] was over 75% throughout.

As for `Cc1nsc(C2CCN(c3ccc(C4(C(=O)NS(=O)(=O)C(F)(F)F)CC4)cc3)CC2)c1NC(=O)O[C@H](C)c1ccccc1` [Compound 94], the inhibition at 0.25 h, 10 µM at BSEP was in the range of 75 to 100%. Further, the IC50 at hLPAR1 was under 10 nM; with A2058 cells, under 100 nM. For the same compound, the share remaining at 0.5 h in data set [1] and in data set [2] was 50 to 75% each time.
